Assays:
influenza A = test: Antiviral activity on influenza A; format: cell-based; details: Influenza A virus; read-out: EC50 range
Excerpt: (§1) The assay for measuring influenza A has been described in general in Antimicrob. Agents Chemother. 2015; 59:2062 and applied to compounds of the present invention furnished the following representative results: […]

[1] = Mouse pharmacokinetics, oral or intravenous cassette dosing; format: in vivo, mice (C57BL/6J); details: C57BL/6J, whole blood, 3 female mice, 5 mg/kg oral cassette, sampling 0.5-24 h; for AUC(0-t): read-out: AUC0-24 h
Experimental: The pharmacokinetics of the compounds of the present invention was evaluated in 3 male and 3 female mice (C57BL/6J, 8 week old) after oral or intravenous cassette dosing to assess the oral bioavailability. Dose was 5 mg/kg (oral) and 1 mg/kg (intravenous), application volume was 5 mL/kg (oral) and 0.5 mL/kg (intravenous), vehicle was 5% solutol, 95% NaCl solution (at 0.9% saline concentration) for oral and 5% solutol, 5% Ethanol, 90% NaCl solution (at 0.9% saline concentration) for intravenous. At each designated time point (0.25, 0.5, 1, 2, 4, 8 and 24 h after dosing), 20 μL whole blood were collected from the tail vein into Li-heparin tubes, frozen on dry ice within 1-2 minutes of sampling and stored at −20° C. until processed for LC-MS analysis. The obtained data is as follows:
(§2) The pharmacokinetics of additional compounds of the present invention was evaluated in 3 female mice (C57BL/6J, 8 week old) after oral cassette dosing. Dose was 5 mg/kg, application volume was 5 mL/kg, vehicle was 5% solutol, 95% NaCl solution (at 0.9% saline concentration). At each designated time point (0.5, 1, 2, 4, 8 and 24 h after dosing), 20 μL whole blood were collected from the tail vein into Li-heparin tubes, frozen on dry ice within 1-2 minutes of sampling and stored at −20° C. until processed for LC-MS analysis. The obtained data is as follows:
as §2, with “(0.25, 0.5,” for “(0.5,”, “4 and” for “4,”, “8” for “8 and 24”, “analysis.” for “analysis. The obtained data is as follows:”

RORγt = biological target: T1, RORγt (Homo sapiens, UniProt P51449); test: Indigo Biosciences Human RAR-related Orphan Receptor, Gamma Reporter Assay (in vitro inhibition of RORγt); format: cell-based; details: RORγt reporter cells, luciferase readout, 22-24 h incubation; read-out: IC50 range
T1 sequence (P51449 269-508 limits assumed): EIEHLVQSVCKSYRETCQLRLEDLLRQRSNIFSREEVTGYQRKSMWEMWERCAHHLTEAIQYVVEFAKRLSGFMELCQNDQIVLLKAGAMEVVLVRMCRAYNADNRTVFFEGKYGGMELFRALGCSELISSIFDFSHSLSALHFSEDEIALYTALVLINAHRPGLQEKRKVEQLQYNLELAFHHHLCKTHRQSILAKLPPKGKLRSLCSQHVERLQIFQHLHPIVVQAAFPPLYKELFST
Experimental: The in vitro inhibition of RORγt was measured using Indigo Biosciences Human RAR-related Orphan Receptor, Gamma Reporter Assay System (Product #IB304001-32) as described in the technical manual. In brief, 200 μL of Reporter Cells is dispensed into wells of the assay plate and preincubated for 4-6 h. Following the pre-incubation period, culture media are discarded and 200 µL/well of the prepared 1×-concentration treatment media are added. Following 22-24 h incubation, treatment media are discarded and Luciferase Detection Reagent is added. The intensity of light emission (in units of ‘Relative Light Units’; RLU) from each assay well is quantified using a plate-reading luminometer. Average values of RLU were determined for each treatment concentration. Non-linear regression analyses were performed and IC50 values determined using GraphPad Prism software. Provided inverse-agonists ursolic acid served as positive control.

[2] = Microsomal stability, mouse liver microsomes; details: male, CD-1, mouse, mouse liver microsomes 10003 CD-1, male (Corning), 60 min, Example 100 experiment
Experimental: (§3) The conversion to the metabolite was monitored by HPLC-MS/MS. Verapamil served as positive control.
The metabolism was monitored by HPLC-MS/MS.
Verapamil served as positive control. The intrinsic clearance was calculated from the measured remaining compound values.

SARS-CoV-2 = test: Antiviral activity on SARS-CoV-2, viral replication (YFP) assay; format: cell-based; details: Severe acute respiratory syndrome coronavirus 2, read-out: EC50 range
Excerpt: (§4) The assay for viral replication (YFP) and the cell viability assay has been described in general in Pathogens 2021; 10:1076 and applied to compounds of the present invention furnished the following results: […]

[3] = tested on: respiratory syncytial virus (RSV, A2 strain expressing eGFP, Long strain or RSV-B); test: Antiviral activity on RSV in HEp-2 cells; format: cell-based; details: human respiratory syncytial virus, HEp-2, 45 h, read-out: IC50 (50% inhibitory concentration)
Experimental: One day before infection, 20,000 HEp-2 cells per well were seeded in a 96-well plate. Example 100 or DMSO vehicle controls were applied on cell monolayers at indicated concentrations and infected immediately after treatment with respiratory syncytial virus (RSV, A2 strain expressing eGFP, Long strain or RSV-B) at MOI 0.001. Cells were incubated for 45 h at 37° C. and 5% CO2. RSV infection was quantified either by counting green fluorescent infected cells using CTL-Immunospot reader or by ICC staining using RSV-targeting antibody. Shown as mean values of triplicate wells normalized to the corresponding vehicle-treated controls ±SD.

[4] = CC50 accompanying the influenza A assay; format: cell-based; details: influenza A test
Excerpt: as §1

[5] = Cell viability assay accompanying the SARS-CoV-2 assay; format: cell-based; details: cell viability assay of the SARS-CoV-2 test
Excerpt: as §4

[6] = Microsomal stability, rat liver microsomes; details: rat liver microsomes 9078001 (Corning), 60 min, Example 102 experiment
Experimental: as §3
(§5) The metabolism was monitored by HPLC-MS/MS. Verapamil served as positive control. The intrinsic clearance was calculated from the measured remaining compound values.

[7] = Microsomal stability, human liver microsomes; details: both
Experimental: as §3, §5, §5

SMILES | EC50 (influenza A) [nM] | Cmax [1] [ng/mL] | half-life [1] [h] | AUC(0-t) [1] [ng·h/mL] | IC50 (RORγt) [nM] | microsomal CLint [2] [µL/min/mg] | EC50 (SARS-CoV-2) [nM] | IC50 [3] [nM] | CC50 [4] [nM] | CC50 [5] [nM] | microsomal CLint [6] [µL/min/mg] | microsomal CLint [7] [µL/min/mg]
[2H]C([2H])([2H])OC(=O)c1c(-c2c(F)cccc2Cl)noc1-c1cnn(-c2cccc(Cl)c2)c1C(F)(F)F [Example 100, Methyl-d3 3-(2-chloro-6-fluorophenyl)-5-(1-(3-chlorophenyl)-5-(trifluoromethyl)-1H-pyrazol-4-yl)isoxazole-4-carboxylate] | < 100 | 50.5 | 6.4 | 201 | < 10 | 24.4 | < 100 | < 50 | 82000 | 50000 | – | –
[2H]C([2H])(OC1CC1)c1c(-c2c(F)cccc2Cl)noc1-c1cnn(-c2cccc(Cl)c2)c1C(F)(F)F [Example 102, 3-(2-Chloro-6-fluorophenyl)-5-(1-(3-chlorophenyl)-5-(trifluoromethyl)-1H-pyrazol-4-yl)-4-(cyclopropoxymethyl-d2)isoxazole] | 100 to 1000 | 272 | 7.2 | 970 | 10 to 100 | – | < 100 | – | > 100000 | 17000 | 29.4 | 6.7

Source: patent US20250243190A1, “NEW DEUTERATED RORGAMMA/RORGAMMAT INVERSE AGONISTS” (IMMUNIC AG, priority 2022, published 2025)
